Experimental data taken from the METLIN SMRT retention time set (Domingo-Almenara et al. 2019).

Experiment: gradient 5% acetonitrile 3 min, to 50% in 2 min, to 85% in 15 min, held 3 min, 100 µL/min
Details: column: Zorbax Extend-C18 2.1 x 50 mm; eluents: water / acetonitrile, 0.1% formic acid
Procedure, shortened: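 Values are retention times taken from adduct peaks that software picked and an analyst inspected. The pure standards were run as mixtures of ~100 molecules on HPLC linked to a quadrupole time-of-flight mass spectrometer, in positive and negative ionization mode. A Zorbax Extend-C18 column (2.1 × 50 mm, 1.8 μm) was used at 100 μL/min with water and acetonitrile, each including 0.1% formic acid.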

Row | SMILES | RP-LC retention time [s]
1 | O=C(CC1CCCN(c2cn[nH]c(=O)c2)C1)Nc1ccc2c(c1)OCCO2 (stereo not given) | 639
2 | COc1ccc(Cl)cc1NC(=O)Nc1ccc2c(c1)C(=O)N(C)CCO2 | 766
3 | COc1cc(NC(=O)N2CCC(c3cnn(-c4ccccc4)c3)CC2)cc(OC)c1OC | 852
4 | COC[C@@H]1CN(C(=O)c2ccoc2C)C[C@H]1c1nc(C)no1 | 539
5 | COc1ccc(NC(=O)N(C)CC2CCOCC2)cc1Cl | 712
6 | CCOC(=O)c1c(C)nc(C)c(C(=O)OCC)c1-c1cccnc1 | 810
7 | COc1ccccc1-c1noc(C2CCCN2C(=O)c2ccoc2)n1 (stereo not given) | 763
8 | COC(=O)c1ccc(NC(=O)N2CC(Oc3cccc(-c4nc(C)no4)c3)C2)cc1 | 883
9 | CC1CCCN(Cc2nc(-c3ccc(N4CCSCC4)nc3)no2)C1 (stereo not given) | 856
10 | O=C(Cn1c(=O)n(C2CCCCC2)c2ncccc21)NCCN1CCOCC1 | 627
11 | O=C(O)c1cc(I)ccc1NC(=O)[C@H](Cc1ccccc1)NCc1ccccc1 | 863
12 | O=C(Cc1nnc(-c2cccc(F)c2)o1)NCC1CC1 | 722
13 | Cc1cc2cc(CNC(=O)Nc3cccc(Cl)c3)ccc2[nH]1 | 843
14 | O=C(Nc1cccc(Cl)c1)Nc1ccc2nc3n(c(=O)c2c1)CCCC3 | 723
15 | CCCCOC(=O)CSc1nnc(-c2cc(OC)c(OC)c(OC)c2)o1 | 1000
16 | O=C(Cn1cccc1-c1nnc(C2CCC2)o1)Nc1ccc(F)c(Cl)c1 | 965
17 | Cc1cc(=O)n(CC(=O)Nc2cc(F)ccc2F)c(N2CCOCC2)n1 | 698
18 | O=c1cc(O)cc(/C=C/c2ccc(O)c(O)c2)o1 | 680
19 | CCSc1nc2ccc(NS(=O)(=O)c3ccc4c(c3)OCCO4)cc2s1 | 987
20 | O=C(c1ccc(F)c(Cl)c1)N(CC1CCOC1)C1CC1 (stereo not given) | 824
21 | Cc1cc(C)c(NC(=O)C2CCN(c3c(C(=O)N4CCOCC4)cnc4snc(C)c34)CC2)c(C)c1 | 826
22 | O=C(N[C@H]1C[C@@H]2C[C@H]1N(C(=O)c1ccco1)C2)c1ccccc1 | 671
23 | c1ccc(-c2noc(-c3ccc(NCc4ccc5c(c4)OCO5)nc3)n2)cc1 | 1110

Row | SMILES | RP-LC retention time [s]
24 | Cc1n[nH]c(C)c1CCC(=O)NCc1c(F)cccc1F | 526
25 | COc1cccc(Nc2c(-c3ccc(Br)cc3)nc3cnccn23)c1 | 972
26 | N#Cc1cccc(NC(=O)Cc2cn3cc(F)ccc3n2)c1 | 593
27 | CCc1nc(-c2csc(S(=O)(=O)N3CCCC(C(=O)N4CCOCC4)C3)c2)no1 (stereo not given) | 796
28 | Cc1ccc2c(c1Br)C(O)(CC(=O)c1ccc(F)cc1)C(=O)N2 (stereo not given) | 802
29 | COc1ccc(C2Cn3nnc(-c4nc(-c5cccc(Br)c5)no4)c3CO2)cc1 (stereo not given) | 1170
30 | Cc1cc(C)c2c(N3CCCC3)nc(C(=O)Nc3ccc(N4CCOCC4)cc3)nc2n1 | 612
31 | CCc1ccc(NS(=O)(=O)c2c(C)sc(C)c2-c2cc(C)[nH]n2)cc1 | 1130
32 | COc1ncccc1CNC(=O)CCc1c(C)nn(C)c1C | 580
33 | CC(C)C(=O)NCc1csc(C2CCCN(C(=O)c3cc(F)ccc3F)C2)n1 (stereo not given) | 730
34 | Cn1cc(C(=O)C(=O)N[C@H]2CN3CCC2CC3)c2ccccc21 | 672
35 | O=S(=O)(c1cc(-c2cc(C(F)(F)F)on2)cs1)N(Cc1ccco1)C1CCCCC1 | 1300
36 | C[C@H]1CN(C(=O)Nc2ccc(Cl)cc2)C[C@@H]1c1nc(-c2ccccc2)no1 | 1080
37 | Nc1nc(-c2ccccc2)c(C(=O)Nc2ccccc2)s1 | 706
38 | O=C(NCc1ccsc1)C(=O)Nc1ccon1 | 665
39 | Cn1cc(C(CNC(=O)Nc2ccc3c(c2)OCO3)c2cccnc2)c2ccccc21 (stereo not given) | 684
40 | CCc1cc(-c2csc(S(=O)(=O)Nc3ccc(F)c(Cl)c3)c2)on1 | 1020
41 | CCNC(=O)c1sc(Nc2ccc(Cl)cn2)nc1C | 726
42 | Fc1cccc(F)c1-c1nc(-c2ccc3nncn3c2)no1 | 765
43 | Cc1nnc2sc(SCC(=O)NCc3ccc4c(c3)OCO4)nn2c1=O | 603
44 | O=C(Nc1cccc(Cl)c1)Nc1nc(CC(=O)N2CCc3ccccc32)cs1 | 978
45 | CC(=O)N1CCN(C(=O)[C@@]23CCCC[C@H]2N(CCC(C)C)C(=O)CC3)CC1 | 662
46 | O=c1ccc(-c2ccc(F)cc2)nn1Cc1nc(-c2ccc(F)cc2)no1 | 952

Next, values leading:

Row | RP-LC retention time [s] | SMILES
47 | 572 | COc1ccc(-c2nc(NCCCN3CCCC(C)C3)c3ccccc3n2)cc1 (stereo not given)
48 | 606 | CN1C(=O)c2cccnc2Sc2cc(NC(=O)c3ccncc3)ccc21
49 | 600 | COc1ccc(-c2cc(C(=O)N(C)C3CCN(C)CC3)nn2C2CCS(=O)(=O)C2)cc1 (stereo not given)
50 | 636 | CCCc1cc(N2CCN(C(=O)c3cccn3C)CC2)nc2nnc(CC)n12
51 | 610 | O=C(NCC1CCN(C(=O)Oc2ccccc2)CC1)C(=O)Nc1cccnc1
52 | 666 | O=C(Cn1nc2n(c1=O)CCCCC2)Nc1ccc(F)cc1
53 | 976 | CC(C)c1ccc(CNC(=O)c2ccc3c(c2)N(C)C2CCCCN2C3=O)cc1 (stereo not given)
54 | 708 | COc1cccc(NC(=O)C2CCN(c3cc(N4CCCCC4)ncn3)CC2)c1
55 | 817 | CC1=C(c2ccc(F)cc2)S(=O)(=O)N=C1N1CCCN(C(=O)c2ccccc2F)CC1
56 | 709 | O=C(c1nnc(-c2csc(S(=O)(=O)N3CCN(c4ccccn4)CC3)c2)o1)N1CCCCC1
57 | 626 | Cn1cc(-c2cc3n(n2)CCC(=O)N3CC(=O)N2CCN(c3ccccn3)CC2)c2ccccc21
58 | 716 | O=C(c1cn2c(n1)COCC2)N(Cc1ccccc1)Cc1ccco1
59 | 812 | CCN1C(=O)C(C)(C(=O)NCc2ccccc2)Oc2cccnc21 (stereo not given)
60 | 624 | CCCCN(CC)C(=O)Cn1nc(Cc2ccncc2)c2ccccc2c1=O
61 | 691 | CN(Cc1cccnc1Oc1ccccc1)C(=O)c1cnccn1
62 | 953 | Cc1cccc(Cn2c(=O)n(CCNC(=O)C3(c4ccccc4)CC3)c3ncccc32)c1
63 | 742 | N#Cc1ccc(C(=O)NC2CCN(c3ccccc3)C2=O)cc1 (stereo not given)
64 | 877 | COCCN1C(=O)c2ccccc2C(C(=O)NCc2ccccc2F)C12CCCCC2 (stereo not given)
65 | 603 | Cc1ccc2c(Nc3ccc(F)c(C#N)c3)c(C(=O)N3CCC(C)CC3)cnc2n1
66 | 906 | COC(=O)c1ccc(NC(=O)N2CCCC2c2ccc(OC)cc2)cc1 (stereo not given)
67 | 690 | Cc1sc2cc(C(=O)N3CCN(c4ccc(F)cc4)CC3)[nH]c2c1CN1CCOCC1
68 | 975 | COc1cc(OC)c(NC(=O)N2CCc3nc(-c4ccccc4)ncc3C2)cc1Cl

Row | RP-LC retention time [s] | SMILES
69 | 718 | O=C(C1CCN(c2cnc3nccnc3c2)CC1)N1CCN(c2ccccc2)CC1
70 | 853 | COc1ccccc1C1(CNC(=O)CSc2ccc(F)cc2)CCOCC1
71 | 619 | Cc1cc2n(n1)CCC(=O)N2CCCC(=O)NCc1ccco1
72 | 851 | CC(C)CCNC(=O)c1nnc(-c2ccc(S(=O)(=O)N3CCOCC3)cc2)o1
73 | 942 | CCc1nc2cc(N3CCC(C(=O)Nc4ccccc4OC)CC3)cnc2nc1CC
74 | 845 | O=C(C(=O)N1CCN(c2ccccc2)CC1)c1c[nH]c2ccccc12
75 | 936 | CCc1nn2c(CNC(=O)c3cccc(C)c3)c(-c3ccccc3)nc2s1
76 | 1400 | Cc1sc(-c2cc(C(F)(F)F)on2)cc1S(=O)(=O)N1CCN(c2ccc(Cl)cc2)CC1
77 | 595 | CC(NC(=O)c1n[nH]c2ccccc12)C(=O)N1CCN(c2ccccn2)CC1 (stereo not given)
78 | 654 | Cc1ccc(N2N=C(C(=O)NCCN3CCOCC3)S(=O)(=O)c3cc(F)ccc32)cc1
79 | 640 | Cc1ccc2c(=O)c3c([nH]c2c1C)CCN(CC(=O)Nc1ccccc1Cl)C3
80 | 576 | CCN1CCN(C(=O)CC2Sc3ncccc3N(CC)C2=O)CC1 (stereo not given)
81 | 660 | CCC(C(=O)NCc1ccc2c(c1)ncn2CC)c1ccccc1 (stereo not given)
82 | 792 | O=C(Nc1cccc(-c2ccc3nnc(-c4cccs4)n3n2)c1)C1CCCC1
83 | 661 | CC1(C)Cc2cccc(OCC(=O)NCc3n[nH]c(=O)c4ccccc34)c2O1
84 | 896 | Cc1ccc2ncn(C3CCN(S(=O)(=O)c4ccc(F)cc4)CC3)c(=O)c2c1
85 | 1180 | CN(C(=O)Cn1cnc2c(-c3ccc(Cl)cc3)csc2c1=O)c1ccc(F)cc1
86 | 576 | Cc1ccc(S(=O)(=O)N(C)CCCC(=O)N2CCN(c3ccccn3)CC2)cc1
87 | 959 | O=C(CS(=O)(=O)c1ccc(Cl)cc1)Nc1nc(-c2ccc3c(c2)OCO3)cs1
88 | 740 | Cc1csc(-c2cc(S(=O)(=O)N3CCN(Cc4ccc5c(c4)OCO5)CC3)c(C)s2)n1
89 | 865 | Cc1ccc(NC(=O)N2CCC(n3cnc4ccc(C)cc4c3=O)CC2)c(Cl)c1
90 | 833 | O=C(C1=NN(Cc2ccccc2F)c2cc(Cl)ccc2S1(=O)=O)N1CCOCC1
